According to ChEMBL document CHEMBL5291721, “A preclinical secondary pharmacology resource illuminates target-adverse drug reaction associations of marketed drugs” (Nat Commun, 2023):

What was measured:
D(3) dopamine receptor = D(3) dopamine receptor (Homo sapiens, UniProt P35462)
[1] = biological target: T1, Equilibrative nucleoside transporter 1 (Homo sapiens, UniProt Q99808)
T1 sequence (Q99808 whole entry): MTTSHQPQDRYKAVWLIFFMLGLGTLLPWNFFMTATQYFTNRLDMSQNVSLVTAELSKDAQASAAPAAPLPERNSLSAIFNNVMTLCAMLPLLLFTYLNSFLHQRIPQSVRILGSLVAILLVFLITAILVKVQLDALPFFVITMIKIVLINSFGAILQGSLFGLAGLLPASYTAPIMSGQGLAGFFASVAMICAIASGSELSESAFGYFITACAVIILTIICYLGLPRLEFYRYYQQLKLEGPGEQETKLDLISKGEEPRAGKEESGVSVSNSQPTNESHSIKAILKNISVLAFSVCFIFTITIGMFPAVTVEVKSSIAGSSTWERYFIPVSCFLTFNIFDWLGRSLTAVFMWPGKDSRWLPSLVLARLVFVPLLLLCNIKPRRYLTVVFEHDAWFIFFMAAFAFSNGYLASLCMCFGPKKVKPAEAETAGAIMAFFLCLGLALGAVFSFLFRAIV

Glucocorticoid receptor = biological target: T2, Glucocorticoid receptor (Homo sapiens, UniProt P04150)
T2 sequence (P04150 whole entry): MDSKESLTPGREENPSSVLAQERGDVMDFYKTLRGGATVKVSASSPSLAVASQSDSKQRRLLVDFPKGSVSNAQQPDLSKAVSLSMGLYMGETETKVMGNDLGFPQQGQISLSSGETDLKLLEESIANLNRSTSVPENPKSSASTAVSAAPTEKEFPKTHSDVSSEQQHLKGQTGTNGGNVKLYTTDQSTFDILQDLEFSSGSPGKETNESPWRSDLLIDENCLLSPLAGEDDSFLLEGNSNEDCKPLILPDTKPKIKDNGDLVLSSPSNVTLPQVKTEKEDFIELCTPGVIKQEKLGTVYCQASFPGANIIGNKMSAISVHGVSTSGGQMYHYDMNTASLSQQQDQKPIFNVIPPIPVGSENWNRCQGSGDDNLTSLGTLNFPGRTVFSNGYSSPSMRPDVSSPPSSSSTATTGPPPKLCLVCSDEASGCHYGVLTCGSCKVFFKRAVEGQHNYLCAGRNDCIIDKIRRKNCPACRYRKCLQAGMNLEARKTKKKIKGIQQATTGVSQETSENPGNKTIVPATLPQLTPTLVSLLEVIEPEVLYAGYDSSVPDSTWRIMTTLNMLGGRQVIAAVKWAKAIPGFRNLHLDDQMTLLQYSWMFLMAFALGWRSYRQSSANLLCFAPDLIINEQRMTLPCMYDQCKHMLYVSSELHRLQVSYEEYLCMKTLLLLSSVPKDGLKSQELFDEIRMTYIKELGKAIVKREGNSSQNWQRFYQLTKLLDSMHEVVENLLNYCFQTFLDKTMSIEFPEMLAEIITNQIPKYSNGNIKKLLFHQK

[2] = biological target: Voltage-dependent L-type calcium channel subunit alpha-1C (Rattus norvegicus, UniProt P22002); assay type: functional
Sequence of Voltage-dependent L-type calcium channel subunit alpha-1C (P22002 whole entry): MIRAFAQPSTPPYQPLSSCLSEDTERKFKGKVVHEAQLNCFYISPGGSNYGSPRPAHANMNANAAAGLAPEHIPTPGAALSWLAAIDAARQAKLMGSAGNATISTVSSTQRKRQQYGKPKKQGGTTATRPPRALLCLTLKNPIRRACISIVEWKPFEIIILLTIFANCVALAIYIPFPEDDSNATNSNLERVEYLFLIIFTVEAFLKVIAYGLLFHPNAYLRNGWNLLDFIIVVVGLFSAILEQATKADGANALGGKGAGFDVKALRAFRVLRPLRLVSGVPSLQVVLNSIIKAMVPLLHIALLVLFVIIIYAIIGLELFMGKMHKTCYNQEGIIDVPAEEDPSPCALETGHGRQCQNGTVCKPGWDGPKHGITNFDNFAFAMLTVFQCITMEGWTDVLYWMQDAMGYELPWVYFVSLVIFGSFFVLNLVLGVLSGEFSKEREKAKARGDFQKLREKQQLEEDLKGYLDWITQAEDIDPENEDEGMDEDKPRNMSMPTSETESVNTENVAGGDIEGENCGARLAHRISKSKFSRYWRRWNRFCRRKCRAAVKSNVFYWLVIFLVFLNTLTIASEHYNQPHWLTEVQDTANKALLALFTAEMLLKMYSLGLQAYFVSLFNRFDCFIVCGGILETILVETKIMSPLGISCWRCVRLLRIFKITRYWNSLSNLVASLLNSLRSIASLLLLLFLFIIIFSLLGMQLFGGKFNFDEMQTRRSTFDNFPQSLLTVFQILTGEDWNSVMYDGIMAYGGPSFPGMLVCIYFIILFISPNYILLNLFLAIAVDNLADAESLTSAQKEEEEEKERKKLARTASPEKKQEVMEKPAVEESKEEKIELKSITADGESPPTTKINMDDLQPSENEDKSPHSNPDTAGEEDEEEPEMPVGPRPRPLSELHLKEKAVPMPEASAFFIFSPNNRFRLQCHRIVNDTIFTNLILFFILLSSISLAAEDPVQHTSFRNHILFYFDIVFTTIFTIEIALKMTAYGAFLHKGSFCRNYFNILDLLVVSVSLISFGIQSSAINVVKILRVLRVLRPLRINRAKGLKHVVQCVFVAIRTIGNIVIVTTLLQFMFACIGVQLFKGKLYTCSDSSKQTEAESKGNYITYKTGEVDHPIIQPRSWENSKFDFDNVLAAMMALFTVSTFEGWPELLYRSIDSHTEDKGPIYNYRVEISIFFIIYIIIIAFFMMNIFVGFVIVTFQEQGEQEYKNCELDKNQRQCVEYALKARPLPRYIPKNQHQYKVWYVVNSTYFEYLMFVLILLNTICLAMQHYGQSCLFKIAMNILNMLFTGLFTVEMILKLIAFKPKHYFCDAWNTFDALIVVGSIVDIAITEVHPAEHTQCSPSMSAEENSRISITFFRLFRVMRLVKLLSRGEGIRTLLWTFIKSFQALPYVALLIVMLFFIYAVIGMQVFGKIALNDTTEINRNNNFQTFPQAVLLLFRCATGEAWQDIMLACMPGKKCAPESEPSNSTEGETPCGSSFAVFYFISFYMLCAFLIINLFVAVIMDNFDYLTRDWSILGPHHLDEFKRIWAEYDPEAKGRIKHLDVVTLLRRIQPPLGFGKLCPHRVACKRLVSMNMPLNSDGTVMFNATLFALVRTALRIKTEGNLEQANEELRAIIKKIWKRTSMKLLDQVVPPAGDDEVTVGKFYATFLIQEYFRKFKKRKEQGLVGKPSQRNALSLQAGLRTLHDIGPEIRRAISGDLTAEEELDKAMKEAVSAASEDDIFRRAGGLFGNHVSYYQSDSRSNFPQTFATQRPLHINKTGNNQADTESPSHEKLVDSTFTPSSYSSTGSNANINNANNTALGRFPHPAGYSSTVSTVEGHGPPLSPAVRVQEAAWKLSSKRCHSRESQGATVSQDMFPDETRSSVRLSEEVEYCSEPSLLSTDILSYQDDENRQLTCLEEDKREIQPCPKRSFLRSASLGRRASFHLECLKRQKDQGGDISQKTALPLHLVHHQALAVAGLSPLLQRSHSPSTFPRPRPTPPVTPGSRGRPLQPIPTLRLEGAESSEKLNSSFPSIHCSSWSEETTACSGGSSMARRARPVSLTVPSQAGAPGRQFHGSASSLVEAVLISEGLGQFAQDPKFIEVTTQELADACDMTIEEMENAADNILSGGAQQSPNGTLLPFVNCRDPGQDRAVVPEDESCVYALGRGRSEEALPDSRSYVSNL

[3] = biological target: T3, 5-hydroxytryptamine receptor 1A (Homo sapiens, UniProt P08908); assay type: functional, cell-based
T3 sequence (P08908 whole entry): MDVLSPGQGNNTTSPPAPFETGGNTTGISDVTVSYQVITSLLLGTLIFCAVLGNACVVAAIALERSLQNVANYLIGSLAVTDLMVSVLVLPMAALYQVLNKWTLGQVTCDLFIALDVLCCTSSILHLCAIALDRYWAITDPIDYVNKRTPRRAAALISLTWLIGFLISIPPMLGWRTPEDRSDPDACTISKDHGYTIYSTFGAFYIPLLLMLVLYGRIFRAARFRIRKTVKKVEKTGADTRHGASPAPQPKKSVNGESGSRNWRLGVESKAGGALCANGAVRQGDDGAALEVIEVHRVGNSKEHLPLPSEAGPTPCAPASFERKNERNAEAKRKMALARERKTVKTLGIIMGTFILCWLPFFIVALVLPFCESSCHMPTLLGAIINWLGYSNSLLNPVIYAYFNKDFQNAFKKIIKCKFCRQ

[4] = biological target: Beta-2 adrenergic receptor (Homo sapiens, UniProt P07550)
Mu-type opioid receptor = Mu-type opioid receptor (Homo sapiens, UniProt P35372)
Sequence of Mu-type opioid receptor (P35372 whole entry): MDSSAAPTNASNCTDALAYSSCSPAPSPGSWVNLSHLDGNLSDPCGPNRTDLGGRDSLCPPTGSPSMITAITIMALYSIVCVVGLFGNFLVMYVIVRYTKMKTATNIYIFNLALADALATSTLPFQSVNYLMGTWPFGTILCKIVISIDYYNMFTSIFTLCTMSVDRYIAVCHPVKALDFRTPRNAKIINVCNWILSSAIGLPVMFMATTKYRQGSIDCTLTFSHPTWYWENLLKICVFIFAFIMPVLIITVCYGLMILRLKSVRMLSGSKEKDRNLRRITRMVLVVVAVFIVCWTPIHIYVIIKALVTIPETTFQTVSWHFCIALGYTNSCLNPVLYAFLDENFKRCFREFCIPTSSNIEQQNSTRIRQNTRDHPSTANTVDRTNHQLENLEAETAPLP

[5] = biological target: T4, Prostaglandin G/H synthase 1 (Rattus norvegicus, UniProt Q63921); assay type: functional
T4 sequence (Q63921 whole entry): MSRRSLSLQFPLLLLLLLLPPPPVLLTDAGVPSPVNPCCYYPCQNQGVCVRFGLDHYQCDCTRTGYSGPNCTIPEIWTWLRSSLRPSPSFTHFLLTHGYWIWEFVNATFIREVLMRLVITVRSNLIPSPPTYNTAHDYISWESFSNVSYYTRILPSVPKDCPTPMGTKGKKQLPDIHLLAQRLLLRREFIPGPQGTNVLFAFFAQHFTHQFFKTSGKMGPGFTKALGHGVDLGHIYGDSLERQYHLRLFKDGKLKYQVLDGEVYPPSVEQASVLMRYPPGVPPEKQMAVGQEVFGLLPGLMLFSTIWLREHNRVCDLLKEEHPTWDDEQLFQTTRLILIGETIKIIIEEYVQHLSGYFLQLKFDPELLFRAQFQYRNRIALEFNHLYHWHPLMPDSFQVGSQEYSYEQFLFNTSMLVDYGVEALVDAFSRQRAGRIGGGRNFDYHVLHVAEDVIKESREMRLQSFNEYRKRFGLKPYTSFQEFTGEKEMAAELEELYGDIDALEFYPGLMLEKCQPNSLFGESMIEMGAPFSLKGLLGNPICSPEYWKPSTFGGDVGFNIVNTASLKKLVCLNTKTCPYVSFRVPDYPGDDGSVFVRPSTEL

[6] = biological target: T5, Alpha-1A adrenergic receptor (Homo sapiens, UniProt P35348); assay type: functional, cell-based
T5 sequence (P35348 whole entry): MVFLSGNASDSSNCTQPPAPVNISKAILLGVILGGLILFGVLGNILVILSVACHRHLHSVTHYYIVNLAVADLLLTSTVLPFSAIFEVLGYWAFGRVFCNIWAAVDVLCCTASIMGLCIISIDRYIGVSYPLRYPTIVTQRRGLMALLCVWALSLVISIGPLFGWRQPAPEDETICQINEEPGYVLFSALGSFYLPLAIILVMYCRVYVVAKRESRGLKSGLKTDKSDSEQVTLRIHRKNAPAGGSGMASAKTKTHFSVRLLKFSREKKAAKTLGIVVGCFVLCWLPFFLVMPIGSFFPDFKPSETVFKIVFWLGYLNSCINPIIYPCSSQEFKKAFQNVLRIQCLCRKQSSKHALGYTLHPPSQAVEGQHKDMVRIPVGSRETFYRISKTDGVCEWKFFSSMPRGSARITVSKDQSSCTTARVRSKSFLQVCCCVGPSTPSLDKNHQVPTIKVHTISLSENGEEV
Note: assay procedure not described here.

Sequence of D(3) dopamine receptor (P35462 whole entry): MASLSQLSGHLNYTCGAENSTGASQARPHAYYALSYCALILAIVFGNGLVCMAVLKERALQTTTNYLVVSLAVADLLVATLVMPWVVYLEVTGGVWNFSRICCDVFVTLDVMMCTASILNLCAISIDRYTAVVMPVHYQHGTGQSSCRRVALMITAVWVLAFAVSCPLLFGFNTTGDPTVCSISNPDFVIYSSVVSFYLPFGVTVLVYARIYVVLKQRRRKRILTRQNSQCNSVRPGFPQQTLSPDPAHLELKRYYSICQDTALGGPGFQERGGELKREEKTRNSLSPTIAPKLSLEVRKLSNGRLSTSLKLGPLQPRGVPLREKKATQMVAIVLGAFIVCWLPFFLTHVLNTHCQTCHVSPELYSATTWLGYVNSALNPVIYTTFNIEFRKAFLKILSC

| Compound | AC50 (D(3) dopamine receptor) [µM] | AC50 [1] [µM] | AC50 (Glucocorticoid receptor) [µM] | AC50 [2] [µM] | AC50 [3] [µM] | AC50 [4] [µM] | AC50 (Mu-type opioid receptor) [µM] | AC50 [5] [µM] | AC50 [6] [µM] |
| --- | --- | --- | --- | --- | --- | --- | --- | --- | --- |
| CCOC(=O)O[C@]1(C(=O)COC(=O)CC)CC[C@H]2[C@@H]3CCC4=CC(=O)C=C[C@]4(C)[C@H]3[C@@H](O)C[C@@]21C [PREDNICARBATE] | > 30 | > 10 | 0.017 | > 10 | > 10 | > 10 | > 30 | > 10 | – |
| TEPRENONE | > 30 | – | > 30 | > 10 | > 30 | > 30 | > 30 | 16.1 | > 30 |
| CN1C2CCCC1CC(NC(=O)c1nn(C)c3ccccc13)C2 (stereo not drawn) [GRANISETRON] | > 10 | > 30 | – | > 10 | > 10 | > 10 | > 10 | > 30 | > 30 |
| CC(C)(C)NCC(O)COc1cccc2c1CC(O)C(O)C2 (stereo not drawn) [NADOLOL] | > 30 | > 10 | > 10 | > 10 | > 10 | – | > 30 | > 10 | > 30 |
| Cc1cccc(Nc2ccncc2S(=O)(=O)NC(=O)NC(C)C)c1 [TORSEMIDE] | > 30 | > 10 | > 10 | > 10 | > 10 | > 10 | > 30 | > 10 | – |
| CCC(=O)[C@@]1(C)[C@H](C)C[C@H]2[C@@H]3CCC4=CC(=O)C=C[C@]4(C)[C@H]3[C@@H](O)C[C@@]21C [RIMEXOLONE] | > 30 | > 10 | 0.01 | > 10 | > 10 | > 10 | > 30 | > 10 | – |
| CCC1(C)CC(=O)NC1=O (stereo not drawn) [ETHOSUXIMIDE] | > 30 | > 10 | > 10 | > 10 | > 10 | > 10 | > 30 | > 10 | – |
| O=C(O[C@H]1C[N+]2(CCCOc3ccccc3)CCC1CC2)C(O)(c1cccs1)c1cccs1 [ACLIDINIUM BROMIDE] | > 10 | > 30 | > 30 | > 10 | – | > 10 | > 30 | > 30 | – |
| CC(C(=O)O)c1ccc(C(=O)c2ccccc2)s1 (stereo not drawn) [TIAPROFENIC ACID] | 8.6 | > 10 | – | > 10 | > 10 | > 10 | > 30 | 0.365 | > 30 |
| Cc1ccc(-c2ncc(Cl)cc2-c2ccc(S(C)(=O)=O)cc2)cn1 [ETORICOXIB] | > 10 | > 30 | – | > 10 | > 10 | > 10 | > 10 | > 30 | > 30 |
| CCC1(CC)C(=O)NC(=O)N(C)C1=O [METHARBITAL] | > 30 | > 10 | > 10 | > 10 | > 10 | > 10 | > 30 | > 10 | – |
| CC1Cc2ccccc2N1NC(=O)c1ccc(Cl)c(S(N)(=O)=O)c1 (stereo not drawn) [INDAPAMIDE] | > 30 | > 30 | – | > 10 | > 30 | > 10 | > 30 | > 30 | > 30 |
| OCC(O)COc1ccc(Cl)cc1 (stereo not drawn) | > 30 | > 10 | > 10 | > 10 | > 10 | > 10 | > 30 | > 10 | – |
| CN(Cc1ccc(C(C)(C)C)cc1)Cc1cccc2ccccc12 [BUTENAFINE] | > 30 | > 10 | > 30 | > 10 | > 10 | > 10 | > 30 | > 10 | – |
| CC(=O)OCC1=C(C(=O)O)N2C(=O)[C@@H](NC(=O)CSc3ccncc3)[C@H]2SC1 [CEPHAPIRIN] | > 30 | > 10 | > 30 | > 10 | > 10 | > 10 | > 30 | > 10 | – |
| Cc1cnc(Nc2ccc(OCCN3CCCC3)cc2)nc1Nc1cccc(S(=O)(=O)NC(C)(C)C)c1 [FEDRATINIB] | 5.3 | > 30 | > 30 | > 10 | – | > 10 | 17 | > 30 | – |
| CC(=O)N1CCN(c2ccc(OCC3COC(Cn4ccnc4)(c4ccc(Cl)cc4Cl)O3)cc2)CC1 (stereo not drawn) [KETOCONAZOLE] | > 30 | 35.2 | > 10 | > 10 | > 10 | > 10 | > 30 | > 10 | – |
| CCN(CC)C(C)C(=O)c1ccccc1 (stereo not drawn) [DIETHYLPROPION] | > 30 | > 30 | – | > 10 | > 10 | > 10 | > 30 | > 30 | > 30 |
| CN(C)CCOC(=O)C(c1ccccc1)C1(O)CCCC1 (stereo not drawn) [CYCLOPENTOLATE] | > 30 | > 30 | > 10 | > 10 | > 10 | > 10 | > 30 | > 10 | – |
| CCN(C(C)=O)c1cccc(-c2ccnc3c(C#N)cnn23)c1 [ZALEPLON] | > 30 | > 30 | – | > 10 | > 10 | > 30 | > 30 | > 30 | > 30 |
